Laboratory results taken from patent publication US20090082304A1, “Methods of Treating Hematological Malignancies with Nucleoside Analog Drugs” (NORTHWESTERN UNIVERSITY, priority 2004, published 2009).

Tests used:
[1] = tested on: p38 MAPK; assay: Immunoblot of phospho-p38 MAPK in MM.1 S cells; format: cell-based
Method: (§1) 5×10^6 were cells treated with 10 μM 8-NH2-Ado for the indicated times and harvested. Cell pellets were washed with cold phosphate-buffered saline (PBS; 8.1 g NaCl, 1.14 g Na2HPO4, 0.22 g KCl, and 0.25 g/L KH2PO4) and incubated with lysis buffer (50 mM HEPES, 150 mM NaCl, 1.5 mM MgCl2, 1 mM EDTA pH 8.0, 100 mM NaFI, 10 mM Na Pyrophosphate, 500 μM PMSF, 0.5% Triton X-100, 10% glycerol) at 4° C. for one hour. Lysates were centrifuged at 4° C. for 1 minute at 9000×g, and the supernatants were collected and stored at −20° C. Protein concentration was determined by Bio-Rad protein assay (BioRad Laboratories, Hercules, Calif.). Protein, at a concentration of 30 μg, was mixed with sample buffer (125 mM Tris, pH 6.8, 4% SDS, 20% glycerol, 100 mM Dithiothreitol (DTT), and 0.05% bromophenol blue), and fractionated on a pre-cast 8-16% Tris-Glycine gel (Invitrogen/Novex, Carlsbad, Calif.). Proteins were then transferred to a Polyvinylidene Fluoride (PVDF) membrane (Immobilon-P, Millipore, Bedford, Mass.): Following protein transfer, membranes were blocked with 5% non-fat milk in PBS-T (PBS with 0.1% Tween), incubated with the primary antibody overnight at 4° C. and subsequently with horseradish peroxidase linked secondary antibody (Amersham, Arlington Heights, Ill.). Blots were developed using ECL Plus Chemiluminescent Western Blotting Detection reagent (Amersham, Arlington Heights, Ill.) and the signal was visualized with X-ray film (Hyperfilm, Amersham, Arlington Heights, Ill.). For reprobing purposes, blots were stripped using Restore Western Blot Stripping Buffer from Pierce Biotechnology (Rockford, Ill.). Phospho-MKK3/6 (Ser189/207), phospho-p38 (Thr180/Tyr182), phospho-ATF-2 (Thr69/71), phospho-c-Raf (Ser259), phospho-MEK1/2 (Ser217/221), total MEK1/2, phospho-ERK1/2 (Thr202/Tyr204), total ERK1/2, phospho-p90RSK (Ser380), total RSK, phospho-PDK1 (Ser241), total PDKI, phospho-PTEN (Ser380), total PTEN, phospho-Akt (Ser473), total Akt, phospho-GSK-3β (Ser9), total GSK-3β, phospho-FKHRLI (Thr32)/-FKHR (Thr24), phospho-FKHR (Ser256) primary antibodies were obtained from Cell Signaling Technology (Beverly, Mass.). Total MKK3, total MKK6, total p38, total ATF-2, total c-Raf, total FKHR, total FKHRLI, phospho-JNK and total JNK were purchased from Santa Cruz Biotechnology (Santa Cruz, Calif.). Caspase 3, caspase 9, and PARP antibodies were obtained from Pharmingen (San Diego, Calif.) and anti-MKP1 from Upstate (Lake Placid, N.Y.). Anti-caspase 8 mouse serum was a generous gift of Dr. Marcus Peter (University of Chicago).
MM.1 S cells were exposed to 10 μM 8-NH2-Ado for 0, 0.5, 1, 2, 4 and 6 hours, after which cells were lysed as previously (Example 2). 30 μg of protein was separated by gel electrophoresis, transferred to PVDF membrane, and probed with phosphorylation-specific antibodies to MKK3/6, p38 MAPK, ATF-2, MEK1/2, ERK1/2, p90RSK, JNK1, PDK1, Akt, FKHRL1 and GSK-3β. […] FIGS. 1A, 1B, 1C and 1D provide the results of the blots.
(§2) MM. I S cells were treated with 10 μM 8-chloro-adenosine for 0, 0.5, 1, 2, 4 or 6 hours or 10 μM of cytarabine, fludarabine, gemcitabine or 8-amino-adenosine for 4 hours. Cells were lysed as previously described and 30 μg of protein was separated by gel electrophoresis, transferred to PVDF membrane, and probed with phospho-p38 MAPK (Thr180/Tyr182) antibody.
In a parallel approach to test the involvement of cellular phosphatases, we treated MM.1 S cells with varying concentrations of the phosphatase inhibitor okadaic acid in combination with 8-NH2-Ado for 4 hours to assess whether the serine/threonine phosphatases PP2A and PPI are involved.

[2] = tested on: ERK1/2; assay: Immunoblot of phospho-ERK1/2 in MM.1 S cells; format: cell-based; conditions: data not shown; for phosphorylation of ERK1/2: 4 hours; for phospho-ERK1/2: dextrose-free media, ATP depletion, 90 minutes
Method: as §1
(§3) MM.1 S cells were exposed to 10 μM 8-NH2-Ado for 0, 0.5, 1, 2, 4 and 6 hours, after which cells were lysed as previously (Example 2). 30 μg of protein was separated by gel electrophoresis, transferred to PVDF membrane, and probed with phosphorylation-specific antibodies to MKK3/6, p38 MAPK, ATF-2, MEK1/2, ERK1/2, p90RSK, JNK1, PDK1, Akt, FKHRL1 and GSK-3β.
as §2
(§4) MM.1 S cells were grown in dextrose-free media and treated with 2 μM Antimycin A, 5 mM 2-DOG, and varying concentrations of dextrose for 90 minutes. Cellular ATP levels were determined using triplicate samples in a luciferase based assay and are expressed here as a percentage of untreated control.

[3] = tested on: MM cells; conditions: MM cells, previously shown; cited from earlier work
[4] = tested on: Akt kinase; assay: Immunoblot of phospho-Akt in MM.1 S cells; format: cell-based; conditions: data not shown; for phosphorylation of Akt: 4 hours; for phospho-Akt: dextrose-free media, ATP depletion, 90 minutes
Method: as §1, §3, §2, §4

[5] = tested on: MM cells; conditions: cited from earlier work

## C=C1[C@@H](O)[C@@H]2O[C@]3(CC[C@H](/C=C/[C@@H](C)[C@@H]4CC(C)=C[C@@]5(O[C@H](C[C@@](C)(O)C(=O)O)CC[C@H]5O)O4)O3)CC[C@H]2O[C@@H]1[C@@H](O)C[C@H](C)[C@H]1O[C@@]2(CCCCO2)CC[C@H]1C [okadaic acid]
[1]; 30 nM okadaic acid in combination with 8-NH2-Ado, 4 hours
  phospho-p38 in the presence of 8-NH2-Ado: partial recovery of phosphorylation
[1]; 30 nM okadaic acid with 10 μM 8-NH2-Ado, at 6 hours
  phospho-p38 levels: still present
[1]; 30 nM okadaic acid with 10 μM 8-NH2-Ado, time course
  8-NH2-Ado-induced loss of p38 phosphorylation: significantly delays

## Nc1ccn([C@@H]2O[C@H](CO)[C@@H](O)[C@@H]2O)c(=O)n1 [cytarabine]
[1]; 10 μM, 4 hours
  phosphorylation of p38: do not cause a decrease
[2]; 10 μM
  phosphorylation of ERK1/2: do not cause a decrease
[3]
  cytotoxicity: cytotoxic
[4]; 10 μM
  phosphorylation of Akt: do not cause a decrease

## Antimycin A
[2]
  phospho-ERK1/2: did not reveal a decrease in phosphorylation
[4]
  phospho-Akt: did not reveal a decrease in phosphorylation

## Nc1ncnc2c1nc(Cl)n2[C@@H]1O[C@H](CO)[C@@H](O)[C@H]1O [8-chloro-adenosine]
[5]
  apoptosis: induces apoptosis
[1]; 10 μM, time course 0-6 hours
  phosphorylation status of p38: does not reveal any effect
[2]; 10 μM, time course 0-6 hours
  phosphorylation status of ERK1/2: does not reveal any effect
[4]; 10 μM, time course 0-6 hours
  phosphorylation status of Akt kinase: does not reveal any effect

## Nc1nc(F)nc2c1ncn2[C@@H]1O[C@H](CO)[C@@H](O)[C@@H]1O [Fludarabine]
[3]
  cytotoxicity: cytotoxic

## O=CC[C@@H](O)[C@H](O)[C@H](O)CO [2-DOG, 2-deoxy-D-glucose]
[2]
  phospho-ERK1/2: did not reveal a decrease in phosphorylation
[4]
  phospho-Akt: did not reveal a decrease in phosphorylation

## Nc1ccn([C@@H]2O[C@H](CO)[C@@H](O)C2(F)F)c(=O)n1 [gemcitabine]
[1]; 10 μM, 4 hours
  phosphorylation of p38: do not cause a decrease
[2]; 10 μM
  phosphorylation of ERK1/2: do not cause a decrease
[3]
  cytotoxicity: cytotoxic
[4]; 10 μM
  phosphorylation of Akt: do not cause a decrease
